Here are results for five molecules from patent US11021498B2 (Acorda Therapeutics, Inc., priority 2008, dated 2021).

Each structure is given as a SMILES string. Values after ≈ are worked out from the molar mass of the structure shown. Where two headings read alike, the source gives them in different places.

Data set [1] in a line: Solubility of acetaminophen prodrugs in water. In kind it is physicochemical.
The conditions of data set [2]: background and U.S. Pat. No. 4,322,410; cited from earlier work.
In the next data set the test system is alkaline phosphatase. Conditions: requires alkaline phosphatase; cited from earlier work.
The conditions of data set [3]: cited from earlier work.
The conditions of data set [4]: Goodman and Gillman's; cited from earlier work.
In another data set the test system is myocytes. The following applies: guinea pigs, low-flow global myocardial ischemia 30 minutes, then 60 minutes of reperfusion; cited from earlier work.
The test system of another data set is rat hippocampus. Conditions: rat hippocampus insulted with quinolinic acid; cited from earlier work.
Where [5] appears, read: water, room temperature, read-out: solubility in water at room temperature.
[6] abbreviates: Anesthesia and Analgesia 101, 90-96, 2005.
Where [7] appears, read: British Journal of Anaesthesia 94 (5): 642-648, 2005.

For orientation: solubility means the concentration that dissolves in the medium under given conditions. Take `CC(=O)Nc1ccc(OCOP(=O)(O)O)cc1` [Sodium (4-acetamidophenoxy)methyl phosphate]: the solubility in data set [1] (solvent water, phosphate) turned out to be 160 mg/mL. Also, the “solubility in water at room temperature” value in data set [1] (water, room temperature, phosphate) is given as about 160 mg/mL.
With `CC(=O)Nc1ccc(OP(=O)(O)O)cc1` [4-acetamidophenyl dihydrogen phosphate], in data set [2], the water solubility is recorded as 50 g per 100 mL. Besides, the “time in vitro to yield acetaminophen from the derivative” value with alkaline phosphatase is reported as “about 15 hours”.
Take `CC(=O)Nc1ccc(OCOP(=O)(O)O)cc1` [(4-acetamidophenoxy)methyl dihydrogen phosphate]: the solubility in data set [1] (setting [5]) was about 145 mg/mL; in data set [1] (water, solvent water, read-out: Solubility), 145 mg/mL.
As to `CC(=O)Nc1ccc(O)cc1` [Acetaminophen, N-(4-hydroxyphenyl)acetamide], the solubility in data set [1] (setting [5]) is about 13 mg/mL (≈ 86 mM). Besides, the water solubility result in data set [2] is reported as “about 1.3 g per 100 mL”. Moreover, the local tolerance profile is on record as 0% in data set [3] (setting [6]) and 52% in data set [3] (setting [7]). Further, in data set [4], the half-life result was “about 2 hours”. Besides, the apoptosis in myocytes entry in the data set on myocytes is on record as “decrease apoptosis in myocytes”. Besides, in the data set with rat hippocampus, the “lipid peroxidation and superoxide anion generation” value was “inhibit both lipid peroxidation and superoxide anion generation”.
As for `CCN(CC)CC(=O)Oc1ccc(NC(C)=O)cc1` [Propacetamol, 4-acetamidophenyl 2-(diethylamino)acetate], the values for the local tolerance profile in data set [3] (setting [6]) and in data set [3] (setting [7]) were 49% and 90%, respectively.
